Assay results taken from patent US10501752B2, “Herbicide tolerant cotton event pDAB4468.19.10.3” (Dow AgroSciences LLC, priority 2012, dated 2019).

Legend:
Type in all cases: in vivo, Gossypium hirsutum
[1] = test system: non-transformed Coker 310 variety of cotton; test: Triclopyr and fluroxypyr greenhouse trials, negative control plants (percent visual injury); settings: 3 leaf stage
Description: (§1) The tolerance of cotton event pDAB4468.19.10.3 to post-emergence applications of the pyridyloxyacetic acid herbicides, triclopyr and fluroxypyr, was studied in greenhouse trials. Herbicide tolerance was assessed following a single post-emergence application of triclopyr or fluroxypyr. Seed from cotton event pDAB4468.19.10.3 were heat treated in a water bath at 82.5° C. for 1 minute and then planted in metro mix 360 media and grown in a greenhouse. The temperatures in the greenhouse averaged 27° C. and the photoperiod was set at 16 hours of light and eight hours of dark, with maximum light intensity. Plants were allowed to grow until the 3 leaf stage of development and a non-randomized study was conducted with three replications and three treatments for each herbicide. Plants were sprayed in a track sprayer calibrated to deliver 187 L/ha of the commercial formulations of triclopyr (Garlon 4TM, Dow AgroSciences, Indianapolis, Ind.) and fluroxypyr ([…], Dow AgroSciences, Indianapolis, Ind.). A non-transformed Coker 310 variety of cotton was used as a negative control.

[2] = test system: cotton event pDAB4468.19.10.3; test: Tolerance to triclopyr and fluroxypyr in greenhouse trials (percent visual injury); settings: for % Injury: cotton event, 3 leaf stage, greenhouse
Description: as §1

[3] = test system: non-transformed Coker 310 variety of cotton (WT); test: Butanoic acids of triclopyr and fluroxypyr greenhouse trials, negative control plants (% injury); settings: 2-3 leaf stage
Description: (§2) Herbicide tolerance was assessed following a single post-emergence application of the two molecules. Seed from cotton event pDAB4468.19.10.3 were heat treated in a water bath at 82.5° C. for 1 minute and then planted in metro mix 360 media and grown in a greenhouse. The temperatures in the greenhouse averaged 27° C. and the photoperiod was set at 16 hours of light and eight hours of dark, with maximum light intensity. Plants were allowed to grow until the 2-3 leaf stage of development and a non-randomized study was conducted with four replications and three treatments for each herbicide. […] In addition, a crop oil concentrate was added to a final concentration of 1.25%. Plants were sprayed in a track sprayer calibrated to deliver 187 L/ha of the formulated technical material. A non-transformed Coker 310 variety of cotton was used as a negative control.

[4] = test system: cotton event pDAB4468.19.10.3 (aad-12); test: Tolerance to butanoic acids of triclopyr and fluroxypyr in greenhouse trials (% injury); settings: 2-3 leaf stage
Description: as §2

O=C(O)COc1nc(Cl)c(Cl)cc1Cl [Triclopyr, triclopyr]
% Injury ([1]; 140 g ae/ha, 3 DAA): 33.8 a %
% Injury ([1]; 140 g ae/ha, 11 DAA): 36.3 b %
% Injury ([1]; 280 g ae/ha, 3 DAA): 33.8 a %
% Injury ([1]; 280 g ae/ha, 11 DAA): 40.0 ab %
% Injury ([1]; 560 g ae/ha, 3 DAA): 36.3 a %
% Injury ([1]; 560 g ae/ha, 11 DAA): 48.8 a %
% Injury ([2]; 140 g ae/ha, 3 DAA): 13.0 c %
% Injury ([2]; 140 g ae/ha, 11 DAA): 3.5 b %
% Injury ([2]; 280 g ae/ha, 3 DAA): 16.5 b %
% Injury ([2]; 280 g ae/ha, 11 DAA): 3.3 b %
% Injury ([2]; 560 g ae/ha, 3 DAA): 19.5 a %
% Injury ([2]; 560 g ae/ha, 11 DAA): 3.3 b %
% Injury ([3]; 140 g ai/ha, 1 DAA): 24.3a %
% Injury ([3]; 140 g ai/ha, 3 DAA): 30a %
% Injury ([3]; 140 g ai/ha, 6 DAA): 33.8a %
% Injury ([3]; 140 g ai/ha, 6 HAA): 20.8a %
% Injury ([3]; 140 g ai/ha, 14 DAA): 56.3ab %
% Injury ([3]; 280 g ai/ha, 1 DAA): 23a %
% Injury ([3]; 280 g ai/ha, 3 DAA): 32.5a %
% Injury ([3]; 280 g ai/ha, 6 DAA): 33.8a %
% Injury ([3]; 280 g ai/ha, 6 HAA): 20.3a %
% Injury ([3]; 280 g ai/ha, 14 DAA): 60ab %
% Injury ([3]; 560 g ai/ha, 1 DAA): 24.5a %
% Injury ([3]; 560 g ai/ha, 3 DAA): 32.5a %
% Injury ([3]; 560 g ai/ha, 6 DAA): 35a %
% Injury ([3]; 560 g ai/ha, 6 HAA): 21.8a %
% Injury ([3]; 560 g ai/ha, 14 DAA): 67.5a %
% Injury ([4]; 140 g ai/ha, 1 DAA): 8.8a %
% Injury ([4]; 140 g ai/ha, 3 DAA): 2a %
% Injury ([4]; 140 g ai/ha, 6 DAA): 2.8a %
% Injury ([4]; 140 g ai/ha, 6 HAA): 19.5a %
% Injury ([4]; 140 g ai/ha, 14 DAA): 0a %
% Injury ([4]; 280 g ai/ha, 1 DAA): 8a %
% Injury ([4]; 280 g ai/ha, 3 DAA): 1.8a %
% Injury ([4]; 280 g ai/ha, 6 DAA): 0.5a %
% Injury ([4]; 280 g ai/ha, 6 HAA): 15.8a %
% Injury ([4]; 280 g ai/ha, 14 DAA): 0a %
% Injury ([4]; 560 g ai/ha, 1 DAA): 9.5a %
% Injury ([4]; 560 g ai/ha, 3 DAA): 3.5a %
% Injury ([4]; 560 g ai/ha, 6 DAA): 3.5a %
% Injury ([4]; 560 g ai/ha, 6 HAA): 17.3a %
% Injury ([4]; 560 g ai/ha, 14 DAA): 0a %

Nc1c(Cl)c(F)nc(OCC(=O)O)c1Cl [Fluroxypyr, fluroxypyr]
% Injury ([1]; 70 g ae/ha, 3 DAA): 11.3 c %
% Injury ([1]; 70 g ae/ha, 11 DAA): 43.8 ab %
% Injury ([1]; 140 g ae/ha, 3 DAA): 27.3 b %
% Injury ([1]; 140 g ae/ha, 11 DAA): 36.3 b %
% Injury ([1]; 280 g ae/ha, 3 DAA): 33.3 a %
% Injury ([1]; 280 g ae/ha, 11 DAA): 43.8 ab %
% Injury ([2]; 70 g ae/ha, 3 DAA): 0.5 e %
% Injury ([2]; 70 g ae/ha, 11 DAA): 2.3 b %
% Injury ([2]; 140 g ae/ha, 3 DAA): 0.5 e %
% Injury ([2]; 140 g ae/ha, 11 DAA): 2.5 b %
% Injury ([2]; 280 g ae/ha, 3 DAA): 6.5 d %
% Injury ([2]; 280 g ae/ha, 11 DAA): 6.3 a %
herbicide level to which the event provides tolerance ([2]; by 3 DAA): up to 280 g ae/ha
% Injury ([3]; 140 g ai/ha, 1 DAA): 24.3a %
% Injury ([3]; 140 g ai/ha, 3 DAA): 32.5bc %
% Injury ([3]; 140 g ai/ha, 6 DAA): 38.8a %
% Injury ([3]; 140 g ai/ha, 6 HAA): 23.8a %
% Injury ([3]; 140 g ai/ha, 14 DAA): 60ab %
% Injury ([3]; 280 g ai/ha, 1 DAA): 25a %
% Injury ([3]; 280 g ai/ha, 3 DAA): 37.5ab %
% Injury ([3]; 280 g ai/ha, 6 DAA): 38.8a %
% Injury ([3]; 280 g ai/ha, 6 HAA): 22.5ab %
% Injury ([3]; 280 g ai/ha, 14 DAA): 65ab %
% Injury ([3]; 560 g ai/ha, 1 DAA): 23.5a %
% Injury ([3]; 560 g ai/ha, 3 DAA): 38.8a %
% Injury ([3]; 560 g ai/ha, 6 DAA): 41.3a %
% Injury ([3]; 560 g ai/ha, 6 HAA): 22.5ab %
% Injury ([3]; 560 g ai/ha, 14 DAA): 67.5a %
% Injury ([4]; 140 g ai/ha, 1 DAA): 21.5a %
% Injury ([4]; 140 g ai/ha, 3 DAA): 8.8c %
% Injury ([4]; 140 g ai/ha, 6 DAA): 7.8b %
% Injury ([4]; 140 g ai/ha, 6 HAA): 19a %
% Injury ([4]; 140 g ai/ha, 14 DAA): 21.3ab %
% Injury ([4]; 280 g ai/ha, 1 DAA): 19.8a %
% Injury ([4]; 280 g ai/ha, 3 DAA): 15.3b %
% Injury ([4]; 280 g ai/ha, 6 DAA): 11.5a %
% Injury ([4]; 280 g ai/ha, 6 HAA): 14a %
% Injury ([4]; 280 g ai/ha, 14 DAA): 17.5b %
% Injury ([4]; 560 g ai/ha, 1 DAA): 21.5a %
% Injury ([4]; 560 g ai/ha, 3 DAA): 21.3a %
% Injury ([4]; 560 g ai/ha, 6 DAA): 14.3a %
% Injury ([4]; 560 g ai/ha, 6 HAA): 17a %
% Injury ([4]; 560 g ai/ha, 14 DAA): 25a %
